Consider 5 molecules from patent US6506793B2, “Citral acetal” (Kao Corporation, priority 2000, dated 2003).

The assay has as its system smell (isovaleric acid) of the socks. Briefly: Organoleptic evaluation of smell of socks after application onto a bare foot. The conditions noted are these: 2 g of 0.1% solution in ethanol on a bare foot; smell (isovaleric acid) of socks after 8 hours. On the set-up: key: 5: Strong; 4: Slightly strong; 3: Moderate; 2: Slightly weak; 1: Weak; 0: Does not smell. In kind it is in vivo, human. An excerpt: The present compounds 1 to 3 obtained in Examples 1 to 3, as well as commercial citral propylene glycol acetal (CITRAL PGA produced by Inoue Koryo Co., Ltd.) and citral hexylene glycol acetal (CITRAL HGA produced by Inoue Koryo Co., Ltd.) as comparative compounds, were used to prepare 0.1% solutions in ethanol respectively, and 2 g solution was applied onto a bare foot. 2 g ethanol (containing no test sample) was applied onto the other bare foot (blank), then socks were put on the feet respectively, and the extent of smell (isovaleric acid) of the socks after 8 hours was subjected to organoleptic evaluation by one skilled examiner in the following 6-level criteria.
For the molecule `CC(C)=CCCC(C)=CC1OC(C)CC(C)(C)O1` (centres unmarked) [CITRAL HGA, citral hexylene glycol acetal, reference compound], the “Strength of Smell” value came to 5. Under `CCCCCCCCOCC1COC(C=C(C)CCC=C(C)C)O1` (centres unmarked) [Present Compound 2, citral n-octyl glyceryl ether acetal] stands 2. Under `CCCCCOCC1COC(C=C(C)CCC=C(C)C)O1` (centres unmarked) [Present Compound 1, citral pentyl glyceryl ether acetal] stands 2; under `CCCCC(CC)COCC1COC(C=C(C)CCC=C(C)C)O1` (centres unmarked) [Present Compound 3, citral 2-ethyl hexyl glyceryl ether acetal], 1; under `CC(C)=CCC/C(C)=C/C1OCC(C)O1` (centres unmarked) [CITRAL PGA, citral propylene glycol acetal, reference compound], 5.
